In patent publication US6376502B1, “Osteoporosis compounds” (priority 1997, dated 2002):

Columns and labels:
[1] = tested on: Bone Morphogenetic Protein 7 (BMP-7) expression in 293S cells transfected with EP2; assay: Kidney regeneration assay: BMP-7 expression by Northern blot in EP2 293S cells; type: cell-based, human; conditions: 10^-6M, RNA at 8, 16 and 24 hours, time dependent
Protocol: (§1) 293S and EP2 293S cells are grown in Dulbecco's Modified Egale medium (DMEM, Gibco, BRL; Gaithersburg, Md.). […] Cells are harvested and RNA is extracted at 8, 16 and 24 hours. Northern blot analysis of total ([…]) is carried out by probing the blots with ^32P-labeled BMP-7 probe. The blots are normalized for RNA loading by hybridization with ^32P-labeled 18s ribosomal RNA probe. […] Given the known role of BMP-7 in kidney regeneration and the ability of an prostaglandin agonist to induce BMP-7 expression in 293S kidney cells in a time and receptor specific manner indicates a role for prostaglandin agonist in kidney regeneration.

[2] = tested on: Bone Morphogenetic Protein 7 (BMP-7) expression in wild type 293S cells; assay: Kidney regeneration assay: BMP-7 expression by Northern blot in wild type 293S cells; type: cell-based, human; conditions: parental 293S cell line, 10^-6M, RNA at 8, 16 and 24 hours
Protocol: as §1

With CCCCC[C@H](O)/C=C/[C@H]1[C@H](O)CC(=O)[C@@H]1C/C=C\CCCC(=O)O [PGE2, Prostaglandin E2] the “induction of BMP-7 expression” value [1] was “induce the expression of BMP-7” and the “induction of BMP-7 expression” value [2] was “generally not observed”.
